Experimental data as given in patent US20040127439A1, “Introduction of the wld gene for prevention of axonal degeneration in neurological diseases” (priority 2004, published 2004).
Like-named read-outs stand apart in the source and are kept apart here.

Columns and labels:
DRG neurites = settings: for reduction in DRG area versus day 0: vincristine 0.01 μM; for Area (DRG neuritic halo) / Length (longest neurite): Vin 0.01 μM, AK295 50 μM, EGTA 2 mM, sulfate salt
Description: On the day of DRG culture, the dishes are washed twice with PBS buffer (pH 7.4), filled with 550 μl medium and pre-incubated at 37 C for at least 2 hours. Fifteen-day old embryos (E15) are removed from pregnant Sprague-Dawley rats (Charles River), and spinal cords with cervical and thoracic DRGs attached are dissected into Leibovitz L-15 medium (GIBCO). Ganglia are separated from the spinal cord, stripped of their connective tissue sheaths and roots, and are then pooled and washed twice with PBS buffer (pH 7.4). DRGs are plated (4 per dish) in culture media and incubated at 37° C. in 5% carbon dioxide for 4 hours to allow DRGs to attach to the substrate. Medium is then added to bring the total volume to 1 ml. […] Calcium-free medium is prepared in the same manner, replacing MEM with S-MEM (GIBCO).
At the end of the treatment period (see below) DRGs are fixed for 30 minutes with 4% paraformaldehyde. Cultures are then rinsed with 0.1M TBS buffer, and treated sequentially with 3% H2O2, TBS-Triton, and 4% normal goat serum (NGS), each for 30 minutes at room temperature. DRGs are incubated at 4 C overnight in monoclonal antibody to MAP5 (1:500, Sigma). After washing in TBS-Triton, DRGs are incubated for 60 minutes in biotinylated secondary antibody, rinsed with TBS and reacted with avidin-biotin complex solution (ABC; Vector Labs) for one hour. Color is generated by incubation for 10 minutes in diaminobenzidine (DAB) solution, enhanced by addition of 0.025% cobalt chloride and 0.02% nickel ammonium sulfate. Stained tissue is rinsed, air dried and cover-slipped for microscopy with Crystal/Mount (Biomeda).
This method of allowing neuritic extension to proceed before addition of a neurotoxin tests the effect of the toxin on established neurites as opposed to the effect on primary neuritic outgrowth.
After day 5 of culture, the media is changed to that containing the experimental treatment. This date is defined as treatment day 0. Cultures are monitored and imaged daily using video microscopy. […] AK 295 (Z-leu-Abu-(CH2)3-4-morpholinyl, gift of Dr. James Powers, Georgia Institute of Technology), is dissolved in 100% DMSO and is then diluted to its final concentration with culture medium. The final concentration of DMSO is 0.05%. Phenylmethylsulfonyl fluoride (PMSF) is manufactured by and commercially available from Sigma.
After 6 days of treatment (11 days in culture) immunostained DRGs are quantitated for degree of axonal degeneration. Images of the DRGs and neurites are captured onto disk using a computerized video imaging system, and are analyzed using NIH Image version 1.61. DRG areas are calculated by tracing the outside circumference of the remaining culture halo. The length of the longest neurite of each DRG is measured from the center of the DRG to the distal end of the neurite, so that cultures without remaining neurites still have positive values. These quantitative data are subjected to ANOVA, with post-test correction for multiple comparisons.

[1] = system: C57BL/6 cultured neurites; assay: Vincristine neuropathy in C57BL/6 mouse DRG cultures; type: cell-based
Description: DRGs were allowed to mature for 5 days to create a lush halo of neurites. […] This date was defined as treatment day 0. […] Cultures were monitored and imaged on day 0, day 4, day 8 and day 10 of treatment using video microscopy.
Measures of axonal survival were the length of longest remaining axon, and the area of remaining DRG halo, as determined by serial phase-contrast video microscopy (FIG. 6). The axonal length was measured from the center of the DRG to the visible distal end of the axon. […] Data were thus analyzed as percent of day 0.

Wld^S DRG axons = assay: Vincristine withdrawal in Wld^S mouse DRG cultures; type: cell-based; settings: 0.05 μM vincristine for 24 hours
Description: The methods for DRG culture have been previously described.
Cultures were measured for length of longest axon and area of the DRG halo at days 4, 8, 12, 16 and 20. Lengths were measured from the center of the DRG to the visible distal end of the axon, and areas were calculated by tracing the circumference crested by connecting the tips of the remaining axons. […] Comparisons were made between quantitative data for C57BL/6 and Wld^S axons. For assessment of growth, day 4 observations in Wld^S were compared to all succeeding days using ANOVA for repeated measures.

rat DRG cultures = assay: Resistance to vincristine-induced axonal degeneration in adenovirus-infected rat DRG cultures; type: cell-based
Description: Adenovirus was generated as previously described. Briefly, the modified transfer vector was linearized with NheI for preparation of the recombinant adenovirus. […] The transfected 293A cells were trypsinized and diluted with 293A cells, seeded into the 96-well tissue culture plates, and kept at 37 C, 5% CO2 for several days. […] Recombinant adenoviruses were purified from wild type viruses by the limiting dilution method. Adenovirus titers were determined by TCID-50 (Tissue Culture Infectious Dose).
Cultures had extended neurites for 6 days before introduction of the transgene. Transgene expression, indicated by GFP fluorescence, was monitored by fluorescence microscopy.
The methods for DRG culture have been previously described. […] Suppression of Schwann cell growth was accomplished by addition of fluorodeoxyuridine and uridine (both at a dose of 10^−6M, Sigma) on days 2-5.
E15 DRG were grown in culture for 6 days and then exposed to adenovirus (with or without the Wld^Stransgene) as described above. […] Length and area measurements were performed and analyzed as described above for mouse cultures.

[2] = Day 3 of treatment, listed as Vin
[3] = Day 4 of treatment, listed as Vin
[4] = Day 6 of treatment, PMSF 50 μM, listed as Vin
[5] = vincristine 0.01 μM, Day 4, C57BL/6
[6] = vincristine 0.01 μM, Day 10, C57BL/6
[7] = vincristine 0.02 μM, Day 4, C57BL/6
[8] = vincristine 0.02 μM, Day 8, C57BL/6
[9] = vincristine 0.02 μM, Day 10, C57BL/6
[10] = vincristine 0.05 μM, Day 4, C57BL/6
[11] = vincristine 0.05 μM, Day 8, C57BL/6
[12] = vincristine 0.05 μM, Day 10, C57BL/6
[13] = vincristine 0.1 μM, Day 4, C57BL/6
[14] = vincristine 0.1 μM, Day 8, C57BL/6
[15] = vincristine 0.1 μM, Day 10, C57BL/6
[16] = Day 4, continuous 0.01 μM vincristine
[17] = Day 8, continuous 0.01 μM vincristine
[18] = Day 10, continuous 0.01 μM vincristine

Vincristine sulfate salt
process of axonal degeneration (in words) (DRG neurites; 0.01 μM): relatively slow
reduction in DRG area versus day 0 (DRG neurites; 4 days exposure): 91.5%
reduction in DRG area versus day 0 (DRG neurites; 6 days exposure): 97.9%
Area (DRG neuritic halo) (DRG neurites; [2]): 6.78 ± 1.06 (17) mm^2
Length (longest neurite) (DRG neurites; [2]): 1.62 ± 0.19 mm
Area (DRG neuritic halo) (DRG neurites; Day 3 of treatment): 6.78±1.06 mm^2
Length (longest neurite) (DRG neurites; Day 3 of treatment): 1.62±0.19 mm
Area (DRG neuritic halo) (DRG neurites; [3]): 2.45 ± 0.74 (13) mm^2
Length (longest neurite) (DRG neurites; [3]): 0.91 ± 0.19 mm
Area (DRG neuritic halo) (DRG neurites; Day 4 of treatment): 2.45±0.74 mm^2
Length (longest neurite) (DRG neurites; Day 4 of treatment): 0.91±0.19 mm
Area (DRG neuritic halo) (DRG neurites; [4]): 0.61 ± 0.21 (48) mm^2
Length (longest neurite) (DRG neurites; [4]): 0.37 ± 0.06 mm
Area (DRG neuritic halo) (DRG neurites; Day 6 of treatment, PMSF 50 μM): 0.16±0.61 mm^2
Length (longest neurite) (DRG neurites; Day 6 of treatment, PMSF 50 μM): 0.37±0.06 mm
time within which axonal degeneration occurs (DRG neurites; concentrations 0.05 μM, 5 day-old cultures): 1 to 3 days
reduction in length of the longest axons versus day 0 (DRG neurites; day 3, vincristine 0.01 μM): 57.6%
reduction in length of the longest axons versus day 0 (DRG neurites; day 4, vincristine 0.01 μM): 76.2%
reduction in length of the longest axons versus day 0 (DRG neurites; day 6, vincristine 0.01 μM): 90.3%
reduction in DRG area versus day 0 (DRG neurites; three days exposure): 76.6%
time until fibers are completely replaced by axonal debris (DRG neurites; vincristine exposure (FIG. 1: 0.01 μM)): 5 to 6 days
halo area at day 10 compared to day 0 ([1]; C57BL/6, vincristine 0.01 μM): 42.86±7.30%
length of longest axons at day 10 compared to day 0 ([1]; C57BL/6, vincristine 0.01 μM): 50.99±5.97%
halo area at day 10 compared to day 0 ([1]; C57BL/6, vincristine 0.1 μM): 0.45±0.09%
length of longest axons at day 10 compared to day 0 ([1]; C57BL/6, vincristine 0.1 μM): 3.56±0.62%
Area of DRG Halo [1, 5]: 7.34 ± 0.78 mm^2
Length of Longest Neurite [1, 5]: 1.77 ± 0.12 mm
Area of DRG Halo ([1]; vincristine 0.01 μM, Day 8, C57BL/6): 5.79 ± 0.86 mm^2
Area of DRG Halo [1, 6]: 4.42 ± 0.85 mm^2
Length of Longest Neurite [1, 6]: 1.22 ± 0.17 mm
Area of DRG Halo [1, 7]: 4.56 ± 1.10 mm^2
Length of Longest Neurite [1, 7]: 1.28 ± 0.22 mm
Area of DRG Halo [1, 8]: 1.14 ± 0.49 mm^2
Length of Longest Neurite [1, 8]: 0.53 ± 0.16 mm
Area of DRG Halo [1, 9]: 0.56 ± 0.27 mm^2
Length of Longest Neurite [1, 9]: 0.41 ± 0.13 mm
Area of DRG Halo [1, 10]: 1.20 ± 0.47 mm^2
Length of Longest Neurite [1, 10]: 0.32 ± 0.08 mm
Area of DRG Halo [1, 11]: 0.05 ± 0.01 mm^2
Length of Longest Neurite [1, 11]: 0.09 ± 0.01 mm
Area of DRG Halo [1, 12]: 0.04 ± 0.01 mm^2
Length of Longest Neurite [1, 12]: 0.07 ± 0.01 mm
Area of DRG Halo [1, 13]: 0.46 ± 0.19 mm^2
Length of Longest Neurite [1, 13]: 0.30 ± 0.09 mm
Area of DRG Halo [1, 14]: 0.04 ± 0.01 mm^2
Length of Longest Neurite [1, 14]: 0.08 ± 0.01 mm
Area of DRG Halo [1, 15]: 0.04 ± 0.01 mm^2
Length of Longest Neurite [1, 15]: 0.08 ± 0.01 mm
duration of growth arrest (Wld^S DRG axons): 10 days
area after resumed growth, % of control values (Wld^S DRG axons; 20-day observation period): 150%
length after resumed growth, % of control values (Wld^S DRG axons; 20-day observation period): 125%
Area of DRG halo (% of Day 0) (rat DRG cultures; [16]): 30.43 ± 5.05 % of Day 0
Length of axons (% of Day 0) (rat DRG cultures; [16]): 48.79 ± 4.72 % of Day 0
Area of DRG halo (% of Day 0) (rat DRG cultures; [17]): 13.23 ± 1.52 % of Day 0
Length of axons (% of Day 0) (rat DRG cultures; [17]): 35.86 ± 3.76 % of Day 0
Area of DRG halo (% of Day 0) (rat DRG cultures; [18]): 9.78 ± 2.22 % of Day 0
Length of axons (% of Day 0) (rat DRG cultures; [18]): 26.28 ± 4.08 % of Day 0
